Assay [1] deals with GTase. Nature of the assay: GTase-inhibitory activity (formation of insoluble glucan from sucrose, turbidity at 550 nm). It counts as biochemical, Streptococcus mutans ATCC 33402. As to conditions: for Optical density of reaction system: 550 nm. On the procedure:
The enzyme GTase was prepared from Streptococcus mutans and using sucrose as the substrate, the inhibitory effect of the test substances on the formation of insoluble glucan was determined.
The preparation of GTase was carried out in accordance with the description in Methods for Isolation of Microorganisms (Kazue Yamazato (ed.): R&D Planning), page 733, (1) Preparation of cell-free GTase. Thus, Streptococcus mutans ATCC 33402 was cultured (inoculum size 1%) in brain heart infusion broth (Difco; hereinafter referred to as BHI medium) under stationary conditions at 37° C. for 18 hours and the resulting culture was centrifuged at 4,000 rpm for 10 minutes. The supernatant was taken and ammonium sulfate was added at a final concentration of 60% saturation. The mixture was gently stirred at 4° C. overnight for salting-out and the precipitate was dissolved in 5 mM potassium phosphate buffer (pH 6.5). This solution was then dialyzed against the same buffer at 4° C. overnight to give a crude GTase preparation.
The assay of GTase activity was carried out by the method described in Methods for Isolation of Microorganisms (ibid), page 733, (2) Assay of activities in microbial culture filtrates with minor modification. Thus, the solution prepared as per Tables 1 and 2 was used as a test solution and the corresponding solution prepared by using the same quantity of distilled water in lieu of the test substance solution in otherwise the same composition was used as a control solution. Test tubes were filled with 5 ml aliquots of the test solution or the control solution and allowed to stand in upright position at 37° C. for 16 hours. After completion of the reaction each tube was shaken well to agitate the reaction system and the optical density at 550 nm was measured to find the degree of turbidity. The inhibitory activity of the test substance against GTase was calculated as a percentage with the turbidity of the control reaction system being taken as 100%. […]
Among the substances falling under the purview of the present invention, those mentioned in Table 3 (Substances 1 through 6) were used as test substances.
For each of the substances mentioned in Table 3, the GTase activity at the test substance concentration of 0.5% in the reaction system was assayed to estimate the inhibitory activity of the test substance.
For Substance 1, GTase activity was assayed in the reaction system corresponding to each concentration of the test substance in the range of 0.01% to 1.0% and to obtain correlation between inhibitory activity and test substance concentration.
For Substance 1 at a concentration of 0.5%, either aqueous sodium hydroxide solution or hydrochloric acid was added to portions of the substrate-test substance solution shown in Table 1 to prepare solutions adjusted to pH 4, 5, 6, 7 and 8, respectively, and using each of these solutions, the reaction was carried out at the corresponding pH. The GTase activity at each pH was assayed and the correlation between reaction system pH and inhibitory activity was studied.

The test system of assay [2] is Streptococcus mutans. The assay is described as follows: Prevention of the adhesion of tooth decaying bacteria to the human tooth. The assay is classed as cell-based, Streptococcus mutans ATCC 330402. As to conditions: 0.5% Substance 1; BHI medium with 5% sucrose; 37° C., 6 hours; scanning electron microscope x 4,000. As to the method:
Two test tubes were respectively filled with BHI medium containing 5% of sucrose and a sterilized human tooth was suspended in each of the tubes using a stainless steel wire. After Substance 1 was added to one of the tubes at a final concentration of 0.5%, a culture of Streptococcus mutans ATCC 330402 grown in BHI medium at 37° C. for 18 hours was added to both tubes at a final concentration of 10^8 CFU/ml. The tubes were further incubated at 37° C. for 6 hours, at the end of which time the teeth were taken out, rinsed and observed with a scanning electron microscope at a magnification of x 4,000.

[3] abbreviates: Table 4, 0.5% test substance, 37° C., 16 hours, buffer pH 6.5.
Setting [4] is: Table 4, 0.5% test substance, 37° C., 16 hours, buffer pH 6.5, control 0.55.

Molecules are shown by their SMILES.

Turning to `Cc1c(OP(=O)(O)OC2=C(O)C(C(O)CO)OC2=O)cc2c(c1C)OC(C)(CCCC(C)CCCC(C)CCCC(C)C)CC2` (centres unmarked) [Substance 3], the “% Inhibition” value in assay [1] (setting [3]) is reported as 94.5%. Besides, the “Optical density of reaction system” value in assay [1] (setting [4]) is given as 0.03.

As to `Cc1cc(OP(=O)(O)OC2=C(O)C(C(O)CO)OC2=O)cc2c1OC(C)(CCCC(C)CCCC(C)CCCC(C)C)CC2` (centres unmarked) [Substance 4], the “% Inhibition” value in assay [1] (setting [3]) amounted to 94.5%. Besides, the “Optical density of reaction system” value in assay [1] (setting [4]) came to 0.03.

Turning to `CC(C)CCCC(C)CCCC(C)CCCC1(C)CCc2cc(OP(=O)(O)OC3=C(O)C(C(O)CO)OC3=O)ccc2O1` (centres unmarked) [Substance 5], in assay [1] (setting [3]), the “% Inhibition” value was 94.5%. In addition, the “Optical density of reaction system” value in assay [1] (setting [4]) is 0.03.

For the compound `Cc1cc(OP(=O)(O)OC2=C(O)C(C(O)CO)OC2=O)c(C)c2c1OC(C)(CCCC(C)CCCC(C)CCCC(C)C)CC2` (centres unmarked) [Substance 2], the “% Inhibition” value in assay [1] (setting [3]) was found to be 94.5%. Moreover, the “Optical density of reaction system” value in assay [1] (setting [4]) amounted to 0.03.

In the case of `Cc1c(C)c2c(c(C)c1OP(=O)(O)OC1=C(O)C(C(O)CO)OC1=O)CCC(C)(CCCC(C)CCCC(C)CCCC(C)C)O2` (centres unmarked) [Substance 6], the “% Inhibition” value in assay [1] (setting [3]) came to 95.8%. In addition, the “Optical density of reaction system” value in assay [1] (setting [4]) stood at 0.02.

Regarding `Cc1c(C)c2c(c(C)c1OP(=O)(O)OC1=C(O)C(C(O)CO)OC1=O)CCC(C)(CCCC(C)CCCC(C)CCCC(C)C)O2` (centres unmarked) [Substance 1], the “adherent bacterial cells and colonies on the tooth surface (FIG. 2)” value in assay [2] is given as “neither adherent bacterial cells nor colonies”. In assay [2], the “adhesion of bacterial cells and subsequent formation of colonies on the tooth surface” value is “completely inhibited”. Also, in assay [1] (0.01% to 1.0%), the “inhibitory activity, dependence on concentration” value is listed as “concentration-dependent”. Moreover, the inhibition rates result in assay [1] (0.075% and higher concentrations) is reported as “not less than 90%”; in assay [1] (concentration of 0.01%), “about 60%”. Also, the “formation of insoluble glucan” value in assay [1] (0.5%, pH range where GTase was active) is given as “very slight”. Also, the “% Inhibition” value in assay [1] (setting [3]) worked out at 92.7%; in assay [1] (Table 5, concentration 0.01%), 59.7%; in assay [1] (Table 5, concentration 0.025%), 59.7%; in assay [1] (Table 5, concentration 0.05%) it was 59.7%; in assay [1] (Table 5, concentration 0.075%), 89.9%; in assay [1] (Table 5, concentration 0.1%), 96.0%. For the same compound, the “% Inhibition” value in assay [1] (Table 5, concentration 0.25%) is 96.0%; in assay [1] (Table 5, concentration 0.5%) it was 96.0%; in assay [1] (Table 5, concentration 1.0%), 96.0%; in assay [1] (Table 6, pH 5, 0.5% test substance), 71.4%; in assay [1] (Table 6, pH 6, 0.5% test substance), 91.9%; in assay [1] (Table 6, pH 7, 0.5% test substance) it was 94.9%. In addition, the “Optical density of reaction system” value worked out at 0.04 in assay [1] (setting [4]); 0.20 in assay [1] (Table 5, concentration 0.01%, control 0.496); 0.20 in assay [1] (Table 5, concentration 0.025%, control 0.496); 0.20 in assay [1] (Table 5, concentration 0.05%, control 0.496); 0.05 in assay [1] (Table 5, concentration 0.075%, control 0.496); 0.02 in assay [1] (Table 5, concentration 0.1%, control 0.496). Also, the “Optical density of reaction system” value in assay [1] (Table 5, concentration 0.25%, control 0.496) is reported as 0.02; in assay [1] (Table 5, concentration 0.5%, control 0.496), 0.02; in assay [1] (Table 5, concentration 1.0%, control 0.496) it was 0.02. Also, the Optical density in assay [1] (Table 6, pH 4, 0.5% test substance, control 0.08) was 0.05; in assay [1] (Table 6, pH 5, 0.5% test substance, control 0.35), 0.06; in assay [1] (Table 6, pH 6, 0.5% test substance, control 0.62) it was 0.05; in assay [1] (Table 6, pH 7, 0.5% test substance, control 0.59), 0.03; in assay [1] (Table 6, pH 8, 0.5% test substance, control 0.05) it was 0.02. Moreover, the inhibition rate entry in assay [1] (pH 5, 0.5%) is “about 70%”; in assay [1] (pH 6 and 7, 0.5%) it was “not less than 90%”.

The values above are taken from patent publication US4973472A, “Dental plaque inhibitor” (Senju Pharmaceutical Col., Ltd., priority 1988, dated 1990).
